{"source": "patent US9809623B2", "about": "“α4β7 peptide monomer and dimer antagonists” (Protagonist Therapeutics, Inc., priority 2014, dated 2017)", "key": {"α4β1 [1]": {"target": "T1, α4β1 (Homo sapiens, UniProt P05556+P13612, DEL729-798)", "T1 construct": "purchased R&D Systems 5668-A4", "T1 sequence (P13612 34-977 limits assumed, stated change not applied)": "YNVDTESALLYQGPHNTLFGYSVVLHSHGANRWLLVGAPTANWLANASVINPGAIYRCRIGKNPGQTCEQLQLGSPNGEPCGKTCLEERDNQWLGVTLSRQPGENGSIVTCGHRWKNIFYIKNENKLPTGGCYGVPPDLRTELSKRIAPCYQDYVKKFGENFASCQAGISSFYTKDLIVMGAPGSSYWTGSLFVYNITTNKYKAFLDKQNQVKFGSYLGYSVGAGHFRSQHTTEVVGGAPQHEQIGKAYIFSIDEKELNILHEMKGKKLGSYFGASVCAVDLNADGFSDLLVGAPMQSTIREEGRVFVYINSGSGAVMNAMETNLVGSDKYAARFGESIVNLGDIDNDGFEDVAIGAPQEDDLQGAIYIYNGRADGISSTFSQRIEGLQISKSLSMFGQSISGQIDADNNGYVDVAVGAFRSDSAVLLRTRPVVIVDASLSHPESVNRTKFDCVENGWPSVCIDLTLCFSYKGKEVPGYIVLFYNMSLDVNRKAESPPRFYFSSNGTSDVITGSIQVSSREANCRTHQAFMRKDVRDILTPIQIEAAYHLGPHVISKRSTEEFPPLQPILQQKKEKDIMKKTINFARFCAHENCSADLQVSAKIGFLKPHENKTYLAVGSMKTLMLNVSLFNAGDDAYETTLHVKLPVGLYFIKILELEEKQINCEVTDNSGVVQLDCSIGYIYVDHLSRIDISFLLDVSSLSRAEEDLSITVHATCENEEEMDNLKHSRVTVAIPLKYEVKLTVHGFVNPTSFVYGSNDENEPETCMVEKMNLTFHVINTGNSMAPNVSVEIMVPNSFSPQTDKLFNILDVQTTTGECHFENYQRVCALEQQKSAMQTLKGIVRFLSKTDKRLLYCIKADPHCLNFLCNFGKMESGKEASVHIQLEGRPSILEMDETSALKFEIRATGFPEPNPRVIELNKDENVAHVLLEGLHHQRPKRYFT", "T1 sequence (P05556 21-728 limits assumed, stated change not applied)": "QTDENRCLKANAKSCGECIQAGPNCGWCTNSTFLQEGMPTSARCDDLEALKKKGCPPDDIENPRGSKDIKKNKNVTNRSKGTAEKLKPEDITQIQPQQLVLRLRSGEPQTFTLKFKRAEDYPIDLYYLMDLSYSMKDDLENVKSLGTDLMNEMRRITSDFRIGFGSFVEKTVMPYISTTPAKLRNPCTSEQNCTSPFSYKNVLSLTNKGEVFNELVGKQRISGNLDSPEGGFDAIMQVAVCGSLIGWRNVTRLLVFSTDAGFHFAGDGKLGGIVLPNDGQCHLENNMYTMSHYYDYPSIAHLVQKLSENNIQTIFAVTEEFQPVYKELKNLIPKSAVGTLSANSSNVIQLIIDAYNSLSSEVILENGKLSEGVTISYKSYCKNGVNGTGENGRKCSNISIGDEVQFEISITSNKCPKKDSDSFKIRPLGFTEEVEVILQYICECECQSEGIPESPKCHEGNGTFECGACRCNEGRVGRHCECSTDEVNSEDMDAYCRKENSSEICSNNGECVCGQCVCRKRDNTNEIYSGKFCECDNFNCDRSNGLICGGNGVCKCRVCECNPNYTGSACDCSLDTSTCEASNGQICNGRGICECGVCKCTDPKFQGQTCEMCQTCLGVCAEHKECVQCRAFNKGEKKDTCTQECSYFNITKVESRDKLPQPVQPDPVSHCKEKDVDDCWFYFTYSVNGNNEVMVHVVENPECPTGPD", "test": "α4β1-VCAM Competition ELISA", "type": "binding", "settings": "Table 3-B, Selectivity (α4β1); range classes; read-out: α4β1 ELISA IC50", "how_it_was_run": "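ELISA plates were coated with VCAM-1 Fc at 400 ng/well. Peptide dilutions (highest final 100 μM) and 60 nM α4β1 were incubated 2 h at 37 °C in pH 7.6 Tris buffer containing 1 mM Mn2+ or Mg2+. Integrin retained on the plate was detected by 9F10 antibody, then HRP secondary, with TMB absorbance at 450 nm.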"}, "α4β1 [2]": {"target": "α4β1 (Homo sapiens, UniProt P05556+P13612)", "sequence (P13612 34-1032)": "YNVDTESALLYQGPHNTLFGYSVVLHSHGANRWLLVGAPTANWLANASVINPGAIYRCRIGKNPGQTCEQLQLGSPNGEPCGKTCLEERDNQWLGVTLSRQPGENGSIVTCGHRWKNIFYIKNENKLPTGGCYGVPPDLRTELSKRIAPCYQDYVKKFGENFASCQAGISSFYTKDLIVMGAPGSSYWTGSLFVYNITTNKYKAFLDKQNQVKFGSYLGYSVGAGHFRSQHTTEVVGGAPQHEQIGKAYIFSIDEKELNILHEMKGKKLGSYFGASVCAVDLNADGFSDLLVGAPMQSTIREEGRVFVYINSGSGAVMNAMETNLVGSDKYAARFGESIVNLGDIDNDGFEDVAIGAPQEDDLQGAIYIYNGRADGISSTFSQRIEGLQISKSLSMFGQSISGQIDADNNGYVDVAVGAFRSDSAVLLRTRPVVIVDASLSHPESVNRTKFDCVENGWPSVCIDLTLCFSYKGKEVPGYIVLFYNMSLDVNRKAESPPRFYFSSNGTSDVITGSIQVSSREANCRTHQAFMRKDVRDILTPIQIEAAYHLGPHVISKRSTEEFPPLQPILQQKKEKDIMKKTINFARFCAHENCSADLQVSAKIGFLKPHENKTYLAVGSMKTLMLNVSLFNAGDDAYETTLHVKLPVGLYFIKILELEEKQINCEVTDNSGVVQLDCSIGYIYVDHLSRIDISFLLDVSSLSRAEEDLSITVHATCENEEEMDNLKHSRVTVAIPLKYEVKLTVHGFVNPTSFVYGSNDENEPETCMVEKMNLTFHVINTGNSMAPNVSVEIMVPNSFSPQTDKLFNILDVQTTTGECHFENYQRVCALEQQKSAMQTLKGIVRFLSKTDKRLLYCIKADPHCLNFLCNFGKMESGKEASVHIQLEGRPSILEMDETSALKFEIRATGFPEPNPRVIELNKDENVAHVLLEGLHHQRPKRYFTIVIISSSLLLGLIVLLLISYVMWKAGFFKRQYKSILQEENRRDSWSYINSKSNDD", "sequence (P05556 21-798)": "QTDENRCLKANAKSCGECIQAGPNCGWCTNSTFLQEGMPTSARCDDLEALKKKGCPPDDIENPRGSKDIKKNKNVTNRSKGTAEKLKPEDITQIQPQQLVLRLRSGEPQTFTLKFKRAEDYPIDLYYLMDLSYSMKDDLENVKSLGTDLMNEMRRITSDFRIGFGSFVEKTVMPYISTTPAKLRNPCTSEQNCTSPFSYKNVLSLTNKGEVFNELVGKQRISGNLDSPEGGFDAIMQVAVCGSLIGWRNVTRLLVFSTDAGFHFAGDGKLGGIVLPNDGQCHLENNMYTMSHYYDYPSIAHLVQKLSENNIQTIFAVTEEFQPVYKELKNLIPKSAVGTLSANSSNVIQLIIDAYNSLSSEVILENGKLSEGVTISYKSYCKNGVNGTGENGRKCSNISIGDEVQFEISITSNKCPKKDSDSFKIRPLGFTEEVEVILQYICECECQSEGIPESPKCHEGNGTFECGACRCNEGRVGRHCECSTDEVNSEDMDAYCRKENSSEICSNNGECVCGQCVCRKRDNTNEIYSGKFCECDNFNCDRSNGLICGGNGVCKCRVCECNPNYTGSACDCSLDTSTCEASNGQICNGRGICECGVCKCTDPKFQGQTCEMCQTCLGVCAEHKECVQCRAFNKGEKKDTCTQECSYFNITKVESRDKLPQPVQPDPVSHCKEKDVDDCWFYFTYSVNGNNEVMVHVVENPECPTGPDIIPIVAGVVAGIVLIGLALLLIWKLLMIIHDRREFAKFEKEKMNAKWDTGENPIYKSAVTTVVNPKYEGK", "test": "α4β1-VCAM Cell Adhesion Assay (Jurkat E6.1 human cells)", "type": "cell-based", "parameters": "host or cells: Jurkat E6.1 human T cells", "settings": "Table 3-B, Selectivity (α4β1); range classes; read-out: α4β1 cell IC50", "protocol": "Jurkat E6.1 human cells (Sigma #88042803) were cultured in RPMI 1640 HEPES medium (Invitrogen #22400-089) supplemented with 10% serum (Fetal Bovine Serum, Invitrogen #16140-071), 1 mM sodium pyruvate (Invitrogen #11360-070), 2 mM L-glutamine (Invitrogen #25030-081) and Penicillin-Streptomycin (Invitrogen #15140-122) at 100 units of penicillin and 100 μg of streptomycin per ml. The cells were washed two times in DMEM medium (ATCC #30-2002) supplemented with 0.1% BSA, 10 mM HEPES pH 7 and 1 mM MnCl2. The cells were re-suspended in supplemented DMEM medium at a density of 4×10^6 cells/ml.\nA Nunc MaxiSorp plate was coated with rh VCAM-1/CD106 Fc chimera (R&D #862-VC) at 400 ng per well in 50 ul per well in 1×PBS and incubated at 4° C. overnight. The solution was then removed by shaking, blocked with 250 ul per well PBS containing 1% BSA, and incubated at 37° C. for 1 hr. The solution was removed by shaking. Peptides were diluted by serial dilution in a final volume of 50 ul per well (2× concentration). To each well, 50 ul of cells (200,000 cells) were added and the plate was incubated at 37° C., 5% CO2 for 30-45 min to allow cell adhesion. The wells were washed manually three times (100 ul per wash) with supplemented DMEM. After the final wash, 100 ul/well of supplemented DMEM and 10 ul/well of MTT reagent (ATTC cat#30-1010K) were added. The plate was incubated at 37° C., 5% CO2 for 2-3 hrs until a purple precipitate was visible. 100 ul of Detergent Reagent (ATTC cat#30-1010K) was added to each well. The plate was covered from the light, wrapped in Parafilm to prevent evaporation, and left overnight at room temperature in the dark. The plate was shaken for 5 min and the absorbance at 570 nm was measured. To calculate the dose response, the absorbance value of control wells not containing cells was subtracted from each test well."}, "α4β7 [3]": {"target": "T2, α4β7 (Homo sapiens, UniProt P13612+P26010)", "T2 sequence (P13612 34-1032)": "as the sequence (P13612 34-1032) above", "T2 sequence (P26010 20-798)": "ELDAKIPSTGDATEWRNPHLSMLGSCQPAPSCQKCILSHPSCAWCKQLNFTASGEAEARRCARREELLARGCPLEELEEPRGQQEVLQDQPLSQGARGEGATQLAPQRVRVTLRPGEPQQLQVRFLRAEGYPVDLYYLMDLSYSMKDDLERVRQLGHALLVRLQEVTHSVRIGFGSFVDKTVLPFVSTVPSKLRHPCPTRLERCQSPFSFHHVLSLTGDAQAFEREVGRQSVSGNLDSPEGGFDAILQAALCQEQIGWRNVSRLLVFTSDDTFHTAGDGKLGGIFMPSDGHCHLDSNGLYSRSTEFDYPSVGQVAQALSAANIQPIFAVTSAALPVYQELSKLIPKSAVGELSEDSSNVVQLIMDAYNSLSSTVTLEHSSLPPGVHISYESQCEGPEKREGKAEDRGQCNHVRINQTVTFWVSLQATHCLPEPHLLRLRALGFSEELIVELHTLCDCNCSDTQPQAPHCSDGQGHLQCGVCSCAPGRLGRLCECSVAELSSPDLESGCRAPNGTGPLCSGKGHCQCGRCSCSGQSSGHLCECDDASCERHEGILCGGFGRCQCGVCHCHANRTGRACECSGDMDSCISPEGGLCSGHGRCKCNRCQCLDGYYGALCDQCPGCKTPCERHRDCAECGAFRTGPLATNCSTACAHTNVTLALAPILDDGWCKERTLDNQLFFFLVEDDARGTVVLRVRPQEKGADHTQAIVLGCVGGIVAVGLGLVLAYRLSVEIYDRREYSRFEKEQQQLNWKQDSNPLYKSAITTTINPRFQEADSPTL", "test": "PBMC Memory T Cell Adhesion Assay, adhesion to MAdCAM-1", "type": "cell-based", "settings": "Table 3-B; range classes; read-out: PBMC IC50", "protocol": "Fresh CD4+/CD45RO+ memory T cells were isolated from human peripheral blood mononuclear cell (PBMC) donors by Aragen Bioscience Inc. (Morgan Hill, Calif.). The assay plate was prepared using IgG Fc capture antibody (donkey anti human) immobilized at 500 ng/well in 50 mM sodium bicarbonate buffer, pH 9.5, ON, 4C onto a Greiner Fluotrac plate (100 ul per well). The plate was rinsed two time with Blocking Buffer (25 mM Tris HCl, pH7.5, 150 mM NaCl, 1.5% BSA, 0.05% Tween), and blocked with Blocking Buffer for 2 hours at 37 C or 5 hours at RT using 200 ul per well. The Blocking Buffer was removed and either MAdCAM-1 or VCAM-1 at 400 ng/well in Blocking Buffer was added and the plate incubated overnight at 4C (100 ul per well). The plate was washed two times with Blocking Buffer, and rinsed once with 200 ul Binding Media (DMEM phenol red free, 10 mM HEPES, 1×Na pyruvate, 1× Glutamine, and supplemented with 1 mM MnCl2 prior to use). To prepare cells, approximately 25 million CD4+/CD45RO+ memory T cells were counted by trypan blue exclusion using a haemocytometer to determine viability and cell count. The cells were transferred to a 50 ml conical tube, and centrifuged at 1200 rpm for 10 minute. The media was aspirated and the cell pellet resuspended in 15 ml Binding Media. The cells were centrifuged again and resuspended in the appropriate amount of Binding Media to be used for assays (50 ul of cells per well at 2× the final density). To each well, and equal volume (50 ul) of test compound was added and the plate was incubated for 1.5 hours at 37 C, 5% CO2. Each well was rinsed 3× with 150 ul per well of Binding Media. […] The plate was incubated at 37 C, 5% CO2, for 45 minutes. The plate was protected from light by using black adhesive seals. Fluorescence intensity was measured using a Molecular Devices Gemini EM Fluorescent Plate Reader (Ex 485/Em530, Bottom Read, Reading Sensitivity=20). IC50 curves are generated using Graph Pad Prism and the curves analyzed using analyzed using a non-linear regression (four parameters) algorithm. The log (concentration) versus RFU (Ex485/Em530) was plotted to determine IC50 values."}, "[4]": {"test": "Simulated Intestinal Fluid (SIF) Stability Assay", "type": "in vitro ADME, porcine", "settings": "pig, simulated intestinal fluid (SIF) with 1% porcine pancreatin", "how_it_was_run": "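Intestinal stability: percent peptide remaining over time, by LC-MS/MS peak-area ratio to internal standard, fitted to first-order decay for half-life. Conditions: 22 μM peptide, 1% pancreatin in pH 6.5 blank FASSIF, 37 °C.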"}, "α4β7 [5]": {"target": "T2, α4β7", "test": "α4β7-MAdCAM Cell Adhesion Assay (RPMI 8866 human cells)", "type": "cell-based", "parameters": "host or cells: RPMI 8866 human B lymphoblastoid cells", "settings": "Table 3-B, Potency (α4β7); range classes; read-out: α4β7 cell (Hu) IC50", "how_it_was_run": "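Adhesion read-out: MTT absorbance at 570 nm minus no-cell wells, after three washes. Plates coated with rh MAdCAM-1/Fc received peptide dilutions plus 200,000 RPMI 8866 cells in Mn2+ (1 mM)-supplemented DMEM, 0.1% BSA, HEPES pH 7, incubated 30-45 min, 37 °C.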"}, "rh integrin α4β7": {"target": "T3, rh integrin α4β7 (Homo sapiens, UniProt P13612+P26010)", "T3 construct": "purchased R&D Systems 5397-A30", "T3 sequence (P13612 34-977 limits assumed)": "as the sequence (P13612 34-977 limits assumed, stated change not applied) above", "T3 sequence (P26010 20-723 limits assumed)": "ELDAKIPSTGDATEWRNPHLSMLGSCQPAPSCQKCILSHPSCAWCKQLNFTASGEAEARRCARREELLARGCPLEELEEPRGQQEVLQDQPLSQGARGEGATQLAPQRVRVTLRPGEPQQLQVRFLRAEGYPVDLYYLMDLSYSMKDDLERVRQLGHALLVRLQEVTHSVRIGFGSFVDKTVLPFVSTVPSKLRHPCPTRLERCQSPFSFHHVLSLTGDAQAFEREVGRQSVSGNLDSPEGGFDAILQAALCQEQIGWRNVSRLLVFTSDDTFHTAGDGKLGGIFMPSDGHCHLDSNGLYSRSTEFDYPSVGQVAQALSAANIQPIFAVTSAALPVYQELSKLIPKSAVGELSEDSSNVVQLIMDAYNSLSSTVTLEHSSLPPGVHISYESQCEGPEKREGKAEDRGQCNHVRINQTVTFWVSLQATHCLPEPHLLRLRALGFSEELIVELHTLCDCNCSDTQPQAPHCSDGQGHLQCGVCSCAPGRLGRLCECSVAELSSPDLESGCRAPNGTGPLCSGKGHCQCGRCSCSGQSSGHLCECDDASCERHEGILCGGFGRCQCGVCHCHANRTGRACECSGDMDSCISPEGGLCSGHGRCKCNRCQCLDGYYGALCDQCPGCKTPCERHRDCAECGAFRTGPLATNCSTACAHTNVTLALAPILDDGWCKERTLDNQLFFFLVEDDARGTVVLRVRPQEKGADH", "test": "α4β7-MAdCAM Competition ELISA", "type": "binding", "settings": "Table 4-B; read-out: ELISA α4β7 IC50", "how_it_was_run": "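Competition read-out was A450 after anti-human IgG1-HRP and TMB detection of bound recombinant human MAdCAM-1 (10 nM final). Peptides were serially diluted 3-fold from a final 10 μM and equilibrated 1 h at room temperature on nickel-captured α4β7 (800 ng/well). The buffer was Tris pH 7.6 with 1 mM Mn2+ or Mg2+.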"}, "[6]": {"test": "Dithiothreitol (DTT) Redox Stability Assay", "type": "physicochemical", "settings": "Table 4-C, t1/2, 0.5 mM DTT", "protocol": "For each peptide tested, the DTT stability assay was conducted by adding 5 μl of a 10 mM peptide stock solution in DMSO to 1 ml of 100 mM Tris-Cl, pH 7.5 (final peptide concentration is 50 μM). At time 0 min, 5 ul of a freshly thawed 100 mM DTT solution was added to the incubation tube containing the peptide, such that the final DTT concentration was 0.5 mM. The reactions were incubated at room temperature. At different time points up to 120 minutes (20 min, 40 min, 80 min, 120 min), 50 ul aliquots were removed, and the reaction was quenched by adding 10 μl of 5M acetic acid. To measure disappearance of the parent peptide, the quenched samples (30 μl) were analyzed by reverse phase HPLC and UV absorbance at 220 nm. The fraction oxidized remaining was graphed versus time, and half-lives were calculated by fitting to a first-order exponential decay equation using Excel."}}, "note": "Where two headings read alike, the source gives them in different places. Numbered stars: 1 amine (or outer) side, 2 acyl side, 3 side chain; on linkers, the order of the positions; unused ones are H or OH. Bridge positions count the residues as written; N and C are the ends. Square brackets hold non-standard residues; d marks the D form. Peptide text beside a SMILES is read from it. I, II: the chains in the order shown. Phe(4-tBu) = CC(C)(C)c1ccc(C[C@H](N)C(=O)O)cc1; 2Nal = N[C@@H](Cc1ccc2ccccc2c1)C(=O)O; Diglycolyl = O=C(COCC(=O)[*:2])[*:1]; NMeR = CN[C@@H](CCCNC(=N)N)C(=O)O; β3hE = N[C@@H](CCC(=O)O)CC(=O)O; Pen = CC(C)(S)[C@H](N)C(=O)O", "data": [{"compound": "CC(=O)N[C@@H]1C(=O)N(C)[C@@H](CCCNC(=N)N)C(=O)N[C@@H](CO)C(=O)N[C@@H](CC(=O)O)C(=O)N[C@@H]([C@@H](C)O)C(=O)N[C@@H](CC(C)C)C(=O)N[C@H](C(=O)N[C@@H](Cc2ccc3ccccc3c2)C(=O)N[C@H](CCC(=O)O)C(=O)N[C@H](CCCCNC(=O)COCC(=O)NCCCC[C@@H](NC(=O)[C@@H](CCC(=O)O)NC(=O)[C@H](Cc2ccc3ccccc3c2)NC(=O)[C@H]2NC(=O)[C@H](CC(C)C)NC(=O)[C@H]([C@@H](C)O)NC(=O)[C@H](CC(=O)O)NC(=O)[C@H](CO)NC(=O)[C@H](CCCNC(=N)N)N(C)C(=O)[C@@H](NC(C)=O)C(C)(C)SSC2(C)C)C(N)=O)C(N)=O)C(C)(C)SSC1(C)C", "note": "[compound 33] (I: Ac-[Pen][NMeR]SDTL[Pen][2Nal][dE][dK]-NH2 / II: Ac-[Pen][NMeR]SDTL[Pen][2Nal][dE][dK]-NH2; disulfide I:1-I:7, II:1-II:7; linker I:10-II:10 via Diglycolyl)", "values": [{"measurement": "IC50", "setting": "α4β1 [1]", "value": "100 to 500", "unit": "nM"}, {"measurement": "IC50", "setting": "α4β1 [2]", "value": "> 100000", "unit": "nM"}]}, {"compound": "CC(=O)N[C@@H]1C(=O)N(C)[C@@H](CCCNC(=N)N)C(=O)N[C@@H](CO)C(=O)N[C@@H](CC(=O)O)C(=O)N[C@@H]([C@@H](C)O)C(=O)N[C@@H](CC(C)C)C(=O)N[C@H](C(=O)N[C@@H](Cc2ccc(C(C)(C)C)cc2)C(=O)N[C@@H](CCC(=O)O)CC(N)=O)C(C)(C)SSC1(C)C", "note": "[compound 165] (Ac-[Pen][NMeR]SDTL[Pen][Phe(4-tBu)][β3hE]-NH2; disulfide 1-7)", "values": [{"measurement": "IC50", "setting": "α4β7 [3]", "value": "100 to 500", "unit": "nM"}, {"measurement": "half-life at 22 μM", "setting": "[4]; pH 6.5, Table 3-B, > means experiment was stopped at that time and half life was not reached, read-out: Stabilty SIF t1/2", "value": "> 180", "unit": "min"}, {"measurement": "IC50", "setting": "α4β7 [5]", "value": "10 to 25", "unit": "nM"}]}, {"compound": "CC(=O)N[C@@H]1C(=O)N(C)[C@@H](CCCNC(=N)N)C(=O)N[C@@H](CO)C(=O)N[C@@H](CC(=O)O)C(=O)N[C@@H]([C@@H](C)O)C(=O)N[C@@H](CC(C)C)C(=O)N[C@H](C(=O)N[C@@H](Cc2ccc(C(C)(C)C)cc2)C(=O)N[C@@H](CCC(=O)O)CC(=O)N[C@H](CCCCNC(=O)COCC(=O)NCCCC[C@@H](NC(=O)C[C@H](CCC(=O)O)NC(=O)[C@H](Cc2ccc(C(C)(C)C)cc2)NC(=O)[C@H]2NC(=O)[C@H](CC(C)C)NC(=O)[C@H]([C@@H](C)O)NC(=O)[C@H](CC(=O)O)NC(=O)[C@H](CO)NC(=O)[C@H](CCCNC(=N)N)N(C)C(=O)[C@@H](NC(C)=O)C(C)(C)SSC2(C)C)C(=O)O)C(=O)O)C(C)(C)SSC1(C)C", "note": "[compound 168] (I: Ac-[Pen][NMeR]SDTL[Pen][Phe(4-tBu)][β3hE][dK]-OH / II: Ac-[Pen][NMeR]SDTL[Pen][Phe(4-tBu)][β3hE][dK]-OH; disulfide I:1-I:7, II:1-II:7; linker I:10-II:10 via Diglycolyl)", "values": [{"measurement": "IC50", "setting": "α4β7 [3]", "value": "< 10", "unit": "nM"}, {"measurement": "IC50", "setting": "α4β7 [5]", "value": "< 10", "unit": "nM"}]}, {"compound": "CC(=O)N[C@@H]1C(=O)N[C@@H](CCCNC(=N)N)C(=O)N[C@@H](CO)C(=O)N[C@@H](CC(=O)O)C(=O)N[C@@H]([C@@H](C)O)C(=O)N[C@@H](CC(C)C)C(=O)N[C@H](C(=O)N[C@H](CCCCN)C(N)=O)CSSC1(C)C", "note": "[compound 206, Ac-Pen-R-S-D-T-L-C-k-NH2] (Ac-[Pen]RSDTLC[dK]-NH2; disulfide 1-7)", "values": [{"measurement": "IC50", "setting": "rh integrin α4β7", "value": 97, "unit": "nM"}, {"measurement": "half-life at 22 μM", "setting": "[4]; pH 6.5, Table 4-C, t1/2, > means assay stopped at that time, read-out: SIF (porcine) Min", "value": 26, "unit": "min"}, {"measurement": "DTT Min", "setting": "[6]", "value": 52, "unit": "min"}]}]}
